The results in this text go back to ChEMBL document CHEMBL1201862, “PubChem BioAssay data set” (2004).

Activity calls are given as the source filed them.

Usually GI50 stands for the concentration that inhibits growth by half. By AC50 is commonly meant the concentration giving half of the maximal activity seen.

The nature of assay [1]: A Cell Based Secondary Assay To Explore Cytotoxicity of Compounds that Sensitize Mycobacterium Tuberculosis to Beta-Lactam Antibiotics. The assay is classed as functional.
In another assay the test system is Vero. Description: viability of Vero cells under compound – cytotoxicity control for flavivirus capping enzyme inhibitors (AID 588742). The assay is classed as functional. The settings on record: Chlorocebus sabaeus.
A further assay has as its target Protein Wnt-3a (Mus musculus, UniProt P27467). Description: antagonism of Wnt3a pathway luciferase reporter – Wnt-LIGHT cells, luminescence, selectivity assay for Gli-SUFU antagonist project, dose response (AID 651570).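 Also: Wnt-LIGHT reporter cells stimulated with conditioned medium from Wnt3a-producing cells.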 The assay is classed as functional. The settings on record: read-out: IC50_Mean. Background: A reporter such as luciferase makes a cellular process visible.

A short description of assay [2]: HEK-293T viability loss after treatment – luminescence, T-cell screen hits, cytotoxicity control for TCR NF-kB inhibitor project, dose response (AID 489026).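 Also: cells exposed to compound about 14 hours before the viability readout.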 Format: functional, cell-based.
The subject of another assay is P388/ADR. Description: cells. The assay is classed as functional. The settings on record: Mus musculus.
Another assay concerns P388. The experiment in a line: cells. Format: functional. The settings on record: Mus musculus.
The test system of another assay is SN12K1. Description: cells. Format: functional. The settings on record: Homo sapiens.
Assay [3] in a line: blockers of HIV-1 ZM109 envelope-driven cell-cell fusion – HeLa effector, CEM target cells, luciferase, cherry-pick, dose response (AID 652058).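 Also: luciferase signal from HIV-1 Env mediated cell-cell fusion of effector and target cells.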 The assay is classed as functional, cell-based.
A short description of assay [4]: Dd2 malaria parasite growth inhibition potency – SYBR Green, dry powder samples, dose response (AID 1159566).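 Also: potency for growth inhibition with lower SYBR green DNA signal.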 The assay is classed as functional, cell-based.
Assay [5] in a line: P. falciparum Dd2 growth inhibitors, dose response, SYBR Green, cherry-picked samples (AID 1159567). The assay is classed as functional, cell-based.
A short description of assay [6]: growth inhibition of PfATP4-mutant resistant parasites – NITD609-resistant line, SYBR Green, dry powder, dose response (AID 1159571).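 Also: parasites synchronized at ring stage by sorbitol before testing.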 Format: functional, cell-based.
Assay [7] is described as follows: HIV-1 AD8 envelope cell-cell fusion blockers – cherry-pick, dose response (AID 652062).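 Also: luciferase signal from cell-cell fusion driven by HIV-1 clade B AD8 Env; potency is for inhibitors of fusion seen as a drop in luminescence.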 The assay is classed as functional, cell-based.
The nature of assay [8]: blockers of HIV-1 envelope-mediated cell-cell fusion – cherry-pick, dose response (AID 652057). Format: functional, cell-based.
A short description of assay [9]: growth inhibition of yeast DHODH-expressing 3D7 parasites – SYBR Green, dry powder samples, dose response (AID 1159570).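 Also: parasite growth measured after 72 hours of compound exposure.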 The assay is classed as functional, cell-based.
The nature of assay [10]: HepG2 cell cytotoxicity, dose response, cytotoxicity control for non-replicating M. tuberculosis project (AID 489018). Format: functional. The settings on record: Mycobacterium tuberculosis.
Assay [11] is described as follows: THP-1 cell cytotoxicity, dose response, cytotoxicity control for non-replicating M. tuberculosis project (AID 489025). Format: functional.
A short description of assay [12]: microbe, parasite or virus in culture. The assay is classed as functional. Conditions: Mycobacterium tuberculosis.
A short description of a further assay: cells. Format: functional.
Assay [13] can be described thus: Vero E6 cell cytotoxicity, dose response, cytotoxicity control for non-replicating M. tuberculosis project, secondary assay (AID 492998). The assay is classed as functional, VeroE6. The settings on record: Vero C1008.

Chain of Protein Wnt-3a (P27467 whole entry): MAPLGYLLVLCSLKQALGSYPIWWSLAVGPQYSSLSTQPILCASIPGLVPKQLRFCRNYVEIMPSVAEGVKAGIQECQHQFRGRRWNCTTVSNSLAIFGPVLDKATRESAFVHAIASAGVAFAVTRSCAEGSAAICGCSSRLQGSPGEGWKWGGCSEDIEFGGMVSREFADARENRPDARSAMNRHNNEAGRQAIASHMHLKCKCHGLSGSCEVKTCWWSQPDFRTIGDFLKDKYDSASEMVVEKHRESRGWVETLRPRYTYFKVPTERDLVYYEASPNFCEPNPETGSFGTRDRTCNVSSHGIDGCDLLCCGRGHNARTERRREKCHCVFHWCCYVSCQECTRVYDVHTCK

As to `CCNC(=O)CCn1nc(-c2ccc(Cl)cc2)c2ccccc2c1=O`, the CC50 in [1] is > 40 µM (active).
On to `Cc1ccc(/C=C/c2nc3ccccc3[nH]2)o1`, for which, in the assay on Vero, the CC50 was > 40 µM (active).
For the compound `Cn1c(=O)c2c(nc(NCCOc3ccc(C(C)(C)C)cc3)n2C)n(C)c1=O`, the IC50 on Protein Wnt-3a was 1.2 µM (active).
As for `CCCC[C@@H](C)C[C@@H](C)C(=O)N(C)[C@@H](CC(C)C)C(=O)N[C@H](C(=O)N(C)[C@H](C(=O)N1C[C@@H](O)C[C@H]1C(=O)N1C(=O)C=C[C@@H]1C)C(C)C)C(C)OC(C)=O` (some centres not stated), in assay [2], the IC50 was 18.6 µM (active).
Consider `COC(=O)NC1C(C)OC(OC2C/C=C(/C)C3C=CC4C(OC5CC(OC6CC(O)C(OC7CC(O)C(OC)C(C)O7)C(C)O6)C(O)C(C)O5)C(C)CC(C)C4C3(C)C(=O)C3=C(O)C4(CC(C)C(CO)=CC4/C=C\2C)OC3=O)CC1(C)[N+](=O)[O-]` (configuration not stated), for which the results for the GI50 in the assay with P388/ADR, with P388 and in the assay with SN12K1 were 5.56 µM (inactive), 3.55 µM (inactive) and 6.21 µM (inactive), respectively.
For `O=C(NC(Cc1ccc(Br)cc1)C(=O)O)c1ccc(I)cc1` (configuration not stated), in that order: > 66.1 µM (inactive), > 80.9 µM (inactive) and > 100 µM (inactive).
On the same counts, the results for `Nc1nc(N)c2cc(CNc3ccc(C(=O)NC(CC(=O)O)C(=O)O)c(Cl)c3)ccc2n1` (configuration not stated) are < 0.01 µM (active), < 0.01 µM (active) and 0.014 µM (active).
For `S=P1(Sc2ccccc2)Oc2ccc3ccccc3c2-c2c(ccc3ccccc23)O1`, in that order: > 100 µM (inactive), > 100 µM (inactive) and > 100 µM (inactive).
As to `C=C1C(O)C2(O)OCC34C(CC5C(C)=CC(=O)C(O)C5(C)C23)OC(=O)C(OC(=O)C/C=C(\C)CCCCC)C14` (configuration not stated), the values for the GI50 in the assay on P388/ADR and with SN12K1 were 0.0933 µM (active) and 0.0125 µM (active), respectively.
On to `O=NN(CCCl)C(=O)N[C@H]1CC[C@H](CC(=O)O)CC1`, for which the GI50 in the assay with P388/ADR was 3.97 µM (inactive); with P388, 3.73 µM (inactive); in the assay on SN12K1, 69 µM (inactive).
For the compound `O=S(=O)(O)c1cc(S(=O)(=O)O)c2cc(/N=N/c3ccc(/N=N/c4ccc(/C=C/c5ccc(/N=[N+](/[O-])c6ccc(/C=C/c7ccc(/N=N/c8ccc(/N=N/c9ccc%10cc(S(=O)(=O)O)cc(S(=O)(=O)O)c%10c9)cc8)cc7S(=O)(=O)O)c(S(=O)(=O)O)c6)cc5S(=O)(=O)O)c(S(=O)(=O)O)c4)cc3)ccc2c1`, the GI50 is 14.7 µM (inactive) in the assay on P388 and > 95.1 µM (inactive) in the assay on SN12K1.
Take `C[C@@H]1CN([C@@H](C)CO)C(=O)c2cccc(NC(=O)c3ccc(-c4nccs4)cc3)c2O[C@H]1CN(C)CC1CC1`: in [3], the AC50 was 40.2 µM (active).
`COc1ccc(S(=O)(=O)Nc2ccc3c(c2)CC(=O)N([C@H](C)CO)C[C@H](C)[C@H](CN(C)S(=O)(=O)c2ccc(C)cc2)O3)cc1`: the AC50 in assay [4] is 1.88 µM (active); in [5] it was 1.89 µM (active); in assay [3] it was 0.33 µM (active); in [6] it was 1.6 µM (active); in assay [7] it was 1.01 µM (active); in assay [8] it was < 0.26 µM (active). In addition, the AC50 in assay [9] is 1.89 µM (active).
As for `C/C(=N\NC(=O)c1cc2ccccc2cc1O)c1ccc(C)o1`, the CC50 was > 20 µM (active) in assay [10]; 21.9 µM (active) in assay [11]; 32 µM (active) in the assay with Vero; 22.7 µM (active) in assay [12]; 16 µM (active) in assay [13]. Further, the IC50 in the assay “cells” is 6.26 µM (active).
